The record followed here is publication PMC3585750, “Modulation of TRP channels by resveratrol and other stilbenoids” (Molecular Pain, 2013).

The target of assay [1] is T1, TRPA1 (mTRPA1) (Mus musculus, UniProt Q8BLA8). Put plainly: whole-cell patch clamp, agonist concentration-response in transfected HEK293 cells; no current in untransfected cells. In kind it is cell-based. For orientation: The patch-clamp technique gives a direct electrical read-out from membranes.
The target of assay [2] is T1, TRPA1 (mTRPA1). Put plainly: whole-cell patch clamp, inhibition of AITC-induced current in transfected HEK293 cells. The assay is classed as cell-based.

pEC50, pIC50: −log10 of the molar value.

T1 sequence (Q8BLA8 whole entry): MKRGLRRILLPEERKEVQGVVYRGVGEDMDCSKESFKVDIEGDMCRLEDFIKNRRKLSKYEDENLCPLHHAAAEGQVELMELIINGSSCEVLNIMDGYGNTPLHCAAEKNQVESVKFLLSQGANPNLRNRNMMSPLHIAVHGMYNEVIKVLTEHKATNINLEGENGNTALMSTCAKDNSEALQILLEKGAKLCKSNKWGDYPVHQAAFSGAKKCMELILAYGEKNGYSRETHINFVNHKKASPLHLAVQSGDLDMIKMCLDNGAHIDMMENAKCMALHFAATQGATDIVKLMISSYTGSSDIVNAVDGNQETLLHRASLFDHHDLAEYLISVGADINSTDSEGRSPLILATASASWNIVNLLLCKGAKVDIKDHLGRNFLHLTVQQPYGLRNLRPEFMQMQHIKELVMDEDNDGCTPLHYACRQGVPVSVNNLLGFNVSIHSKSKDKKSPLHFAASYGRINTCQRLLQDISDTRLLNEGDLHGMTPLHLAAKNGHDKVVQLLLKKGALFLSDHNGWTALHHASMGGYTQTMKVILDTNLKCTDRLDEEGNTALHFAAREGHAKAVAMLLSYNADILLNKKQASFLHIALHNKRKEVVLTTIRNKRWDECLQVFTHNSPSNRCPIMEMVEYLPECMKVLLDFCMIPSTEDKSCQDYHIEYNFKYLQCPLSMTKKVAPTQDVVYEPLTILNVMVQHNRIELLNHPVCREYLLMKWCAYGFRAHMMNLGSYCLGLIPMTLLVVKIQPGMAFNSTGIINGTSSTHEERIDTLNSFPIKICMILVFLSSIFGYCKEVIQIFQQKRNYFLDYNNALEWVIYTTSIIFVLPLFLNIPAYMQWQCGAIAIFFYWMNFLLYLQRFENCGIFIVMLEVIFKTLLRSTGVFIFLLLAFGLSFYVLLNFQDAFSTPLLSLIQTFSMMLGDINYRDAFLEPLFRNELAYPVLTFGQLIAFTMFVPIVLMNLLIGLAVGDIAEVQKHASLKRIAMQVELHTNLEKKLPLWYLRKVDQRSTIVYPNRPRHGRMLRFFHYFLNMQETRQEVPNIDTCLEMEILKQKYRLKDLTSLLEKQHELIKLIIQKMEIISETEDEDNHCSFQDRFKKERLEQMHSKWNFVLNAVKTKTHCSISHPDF

For the molecule `C=CCN=C=S` [AITC, allyl isothiocyanate], the pEC50 (commonly the EC50 on a negative log10 scale, so that one unit is a factor of ten) on TRPA1 (mTRPA1) [1] is 4.21.

In the case of `Oc1ccc(/C=C/c2cc(O)cc(O)c2)cc1` [RES, 3,5,4’ - trihydroxy-trans-stilbene], at TRPA1 (mTRPA1) [2], the pIC50 (commonly the IC50 on a negative log10 scale, so that one unit is a factor of ten) is around 6.12.
